The term pKi denotes −log10 of the Ki, conventionally taken in molar units.

The target of the test is T1, human capsaicin receptor (VR1) (Homo sapiens, UniProt Q8NER1).
T1 construct: transfected with the pBK-CMV expression construct encoding the full length human capsaicin receptor; expressed in transfected cells
The experiment in a line: Capsaicin receptor binding assay ([3H]RTX competition). Conditions: read-out: Ki. The source says:
This Example illustrates the preparation of VR1-transfected cells and membrane preparations for use in binding assays (Example 5) and functional assays (Example 6).
A cDNA encoding full length human capsaicin receptor (SEQ ID NO: 1, 2 or 3 of U.S. Pat. No. 6,482,611) was subcloned in the plasmid pBK-CMV (Stratagene, La Jolla, Calif.) for recombinant expression in mammalian cells.
Human embryonic kidney (HEK293) cells were transfected with the pBK-CMV expression construct encoding the full length human capsaicin receptor using standard methods. The transfected cells were selected for two weeks in media containing G418 ([…]) to obtain a pool of stably transfected cells. Independent clones were isolated from this pool by limiting dilution to obtain clonal stable cell lines for use in subsequent experiments.
For radioligand binding experiments, cells were seeded in T175 cell culture flasks in media without antibiotics and grown to approximately 90% confluency. The flasks were then washed with PBS and harvested in PBS containing 5 mM EDTA. The cells were pelleted by gentle centrifugation and stored at −80° C. until assayed.
Previously frozen cells were disrupted with the aid of a tissue homogenizer in ice-cold HEPES homogenization buffer (5mM KCl 5, 5.8 mM NaCl, 0.75 mM CaCl2, 2 mM MgCl2, 320 mM sucrose, and 10 mM HEPES pH 7.4). Tissue homogenates were first centrifuged for 10 minutes at 1000×g (4° C.) to remove the nuclear fraction and debris, and then the supernatant from the first centrifugation is further centrifuged for 30 minutes at 35,000×g (4° C.) to obtain a partially purified membrane fraction. Membranes were resuspended in the HEPES homogenization buffer prior to the assay. An aliquot of this membrane homogenate is used to determine protein concentration via the Bradford method (BIO-RAD Protein Assay Kit, #500-0001, BIO-RAD, Hercules, Calif.).
This Example illustrates a representative assay of capsaicin receptor binding that may be used to determine the binding affinity of compounds for the capsaicin (VR1) receptor.
Binding studies with [^3H] Resiniferatoxin (RTX) are carried out essentially as described by Szallasi and Blumberg (1992) J. Pharmacol. Exp. Ter. 262: 883-888. In this protocol, non-specific RTX binding is reduced by adding bovine alpha, acid glycoprotein (100 μg per tube) after the binding reaction has been terminated.
[^3H] RTX (37 Ci/mmol) is synthesized by and obtained from the Chemical Synthesis and Analysis Laboratory, National Cancer Institute-Frederick Cancer Research and Development Center, Frederick, Md. [^3H] RTX may also be obtained from commercial vendors (e.g., Amersham Pharmacia Biotech, Inc.; Piscataway, N.J.).
The membrane homogenate of Example 4 is centrifuged as before and resuspended to a protein concentration of 333 μg/ml in homogenization buffer. Binding assay mixtures are set up on ice and contain [^3H]JRTX (specific activity 2200 mCi/ml), 2 μl non-radioactive test compound, 0.25 mg/ml bovine serum albumin (Cohn fraction V), and 5×10^4−1×10^5 VR1-transfected cells. The final volume is adjusted to 500 μl (for competition binding assays) or 1,000 μl (for saturation binding assays) with the ice-cold HEPES homogenization buffer solution (pH 7.4) described above. Non-specific binding is defined as that occurring in the presence of 1 μM non-radioactive RTX (Alexis Corp.; San Diego, Calif.). For saturation binding, [^3H]RTX is added in the concentration range of […], using 1 to 2 dilutions. Typically 11 concentration points are collected per saturation binding curve.
Competition binding assays are performed in the presence of 60 pM [^3H]RTX and various concentrations of test compound. The binding reactions are initiated by transferring the assay mixtures into a 37° C. water bath and are terminated following a 60 minute incubation period by cooling the tubes on ice.

pKi: −log10 of the molar value. Bounds are passed on as bounds.

T1 sequence (Q8NER1 whole entry): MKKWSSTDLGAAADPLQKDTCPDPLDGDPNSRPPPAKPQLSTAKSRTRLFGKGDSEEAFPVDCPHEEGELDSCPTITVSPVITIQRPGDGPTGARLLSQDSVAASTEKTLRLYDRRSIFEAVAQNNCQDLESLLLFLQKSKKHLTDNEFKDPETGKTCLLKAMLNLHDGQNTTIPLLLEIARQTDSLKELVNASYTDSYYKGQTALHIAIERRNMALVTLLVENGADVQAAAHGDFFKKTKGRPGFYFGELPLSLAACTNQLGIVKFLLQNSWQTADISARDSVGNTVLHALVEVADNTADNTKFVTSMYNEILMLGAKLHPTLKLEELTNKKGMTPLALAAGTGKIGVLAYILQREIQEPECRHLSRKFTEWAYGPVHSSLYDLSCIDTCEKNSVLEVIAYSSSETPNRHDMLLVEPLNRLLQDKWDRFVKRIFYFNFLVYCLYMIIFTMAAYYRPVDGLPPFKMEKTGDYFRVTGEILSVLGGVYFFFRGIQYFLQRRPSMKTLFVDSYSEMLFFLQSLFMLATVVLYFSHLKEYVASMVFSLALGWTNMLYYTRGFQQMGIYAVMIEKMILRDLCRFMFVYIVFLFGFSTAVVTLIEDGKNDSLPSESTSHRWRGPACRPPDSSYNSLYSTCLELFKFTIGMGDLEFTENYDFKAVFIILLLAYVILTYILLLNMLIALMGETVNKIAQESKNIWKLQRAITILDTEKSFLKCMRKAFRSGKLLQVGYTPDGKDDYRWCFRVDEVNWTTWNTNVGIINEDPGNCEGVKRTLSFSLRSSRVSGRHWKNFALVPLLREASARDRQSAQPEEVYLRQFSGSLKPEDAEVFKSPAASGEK

For the compound `O=C(Nc1ccc2c(c1)OCCCO2)c1ccc(-c2cccc(OC(F)(F)F)c2)nc1` [Compound 223, N-(3,4-Dihydro-2H-benzo[b][1,4]dioxepin-7-yl)-6-(3-trifluoromethoxy-phenyl)-nicotinamide], the pKi was above 6.00.

As for `Cc1cccc(-c2ccc(C(=O)Nc3ccc4c(c3)OCCO4)cn2)c1` [Compound 202, N-(2,3-Dihydro-benzo[1,4]dioxin-6-yl)-6-m-tolyl-nicotinamide], the pKi is above 6.00.

As for `CCOc1cccc(-c2ccc(C(=O)Nc3ccc4c(c3)OCCO4)cn2)c1` [Compound 194, N-(2,3-Dihydro-benzo[1,4]dioxin-6-yl)-6-(3-ethoxy-phenyl)-nicotinamide], the pKi is above 6.00.

Regarding `CC(C)(C)c1ccc(NC(=O)c2ccc(-c3ncccn3)cc2)cc1` [Compound 433, N-(4-tert-Butyl-phenyl)-4-pyrimidin-2-yl-benzamide], the pKi was above 6.00.

As to `CC(C)c1cccc(-c2ccc(C(=O)Nc3ccc4c(c3)OCCO4)cn2)c1` [Compound 196, N-(2,3-Dihydro-benzo[1,4]dioxin-6-yl)-6-(3-isopropyl-phenyl)-nicotinamide], the pKi was above 6.00.

With `CC(C)(C)c1ccc(NC(=O)c2ccc(-c3ncccc3NS(=O)(=O)c3ccccc3)cc2)cc1` [Compound 25, 4-(3-Benzenesulfonylamino-pyridin-2-yl)-N-(4-tert-butyl-phenyl)-benzamide], the pKi is above 6.00.

Regarding `COc1ccc(F)cc1-c1ccc(C(=O)Nc2ccc(C(C)(C)C)cc2Cl)cn1` [Compound 391, N-(4-tert-Butyl-2-chloro-phenyl)-6-(5-fluoro-2-methoxy-phenyl)-nicotinamide], the pKi is above 6.00.

Turning to `CN(c1cccnc1-c1ccc(C(=O)Nc2ccc(C(C)(C)C)cc2)cc1)S(C)(=O)=O` [Compound 425, N-(4-tert-Butyl-phenyl)-4-[3-(methanesulfonyl-methyl-amino)-pyridin-2-yl]-benzamide], the pKi is above 6.00.

For `CC(C)(C)c1ccc(NC(=O)c2ccc(-c3cccnc3)cc2)cc1` [Compound 431, N-(4-tert-Butyl-phenyl)-4-pyridin-3-yl-benzamide], the pKi was above 6.00.

For `CC(C)c1ccc(-c2ccc(C(=O)Nc3ccc(Br)c(Cl)c3)cn2)cc1` [Compound 321, N-(4-Bromo-3-chloro-phenyl)-6-(4-isopropyl-phenyl)-nicotinamide], the pKi was above 6.00.

For `CC(C)(C)c1ccc(NC(=O)c2ccc(-c3ncccc3C(F)(F)F)cc2O)cc1` [Compound 394, N-(4-tert-Butyl-phenyl)-2-hydroxy-4-(3-trifluoromethyl-pyridin-2-yl)-benzamide], the pKi was above 6.00.

`COc1cccc(NC(=O)c2ccc(-c3cccc(F)c3)nc2)c1` [Compound 126, 6-(3-Fluoro-phenyl)-N-(3-methoxy-phenyl)-nicotinamide]: the pKi is above 6.00.

On to `O=C(Nc1ccc2c(c1)OCCCO2)c1ccc(-c2ccccc2F)nc1` [Compound 218, N-(3,4-Dihydro-2H-benzo[b][1,4]dioxepin-7-yl)-6-(2-fluoro-phenyl)-nicotinamide], for which the pKi was above 6.00.

For `CC(C)(C)[C@H]1CC[C@@H](NC(=O)c2ccc(-c3ncccc3Cl)cc2)CC1` [Compound 393, N-(4-tert-Butyl-cyclohexyl)-4-(3-chloro-pyridin-2-yl)-benzamide (cis)], the pKi was above 6.00.

For the compound `CC(C)(C)c1ccc(NC(=O)c2ccc(-c3ncccc3-c3nnco3)cc2)cc1` [Compound 401, N-(4-tert-Butyl-phenyl)-4-(3-[1,3,4]oxadiazol-2-yl-pyridin-2-yl)-benzamide], the pKi is above 6.00.

Take `Cc1ccc(S(=O)(=O)Nc2cccnc2-c2ccc(C(=O)Nc3ccc(C(C)(C)C)cc3)cc2)cc1` [Compound 428, N-(4-tert-Butyl-phenyl)-4-[3-(toluene-4-sulfonylamino)-pyridin-2-yl]-benzamide]: the pKi is above 6.00.

`O=C(Nc1ccc(C(F)(F)F)cc1)c1ccc(-c2ccccc2F)nc1` [Compound 92, 6-(2-Fluoro-phenyl)-N-(4-trifluoromethyl-phenyl)-nicotinamide]: the pKi was above 6.00.

Regarding `CC(C)(C)c1ccc(NC(=O)c2ccc(-c3ccncc3)nc2)cc1` [Compound 11, [2,4′]Bipyridinyl-5-carboxylic acid (4-tert-butyl-phenyl)-amide], the pKi was above 6.00.

In the case of `Cc1nc2cc(NC(=O)c3ccc(-c4ccccc4F)nc3)ccc2s1` [Compound 85, 6-(2-Fluoro-phenyl)-N-(2-methyl-benzothiazol-5-yl)-nicotinamide], the pKi was above 6.00.

For `Cc1nc2cc(NC(=O)c3ccc(-c4ccccc4)nc3)ccc2s1` [Compound 209, N-(2-Methyl-benzothiazol-5-yl)-6-phenyl-nicotinamide], the pKi was above 6.00.

With `COc1cccc(NC(=O)c2ccc(-c3cccc(OC(F)(F)F)c3)nc2)c1` [Compound 278], the pKi is above 6.00.

For `CC(C)(O)c1ccc(NC(=O)c2ccc(-c3ncccc3Cl)cc2)cc1` [Compound 29, 4-(3-Chloro-pyridin-2-yl)-N-[4-(1-hydroxy-1-methyl-ethyl)-phenyl]-benzamide], the pKi is above 6.00.

`Cc1cc(C)cc(-c2ccc(C(=O)Nc3ccc(Br)c(Cl)c3)cn2)c1` [Compound 316, N-(4-Bromo-3-chloro-phenyl)-6-(3,5-dimethyl-phenyl)-nicotinamide]: the pKi is above 6.00.

In the case of `Cc1cccc(-c2ccc(C(=O)Nc3ccc(C(C)(C)C)cc3)cn2)c1` [Compound 452, N-(4-tert-Butyl-phenyl)-6-m-tolyl-nicotinamide], the pKi is above 6.00.

For `O=C(Nc1ccc2c(c1)CCC2)c1ccc(-c2cccc(Cl)c2)nc1` [Compound 116, 6-(3-Chloro-phenyl)-N-indan-5-yl-nicotinamide], the pKi was above 6.00.

For the compound `O=C(Nc1ccc(C(F)(F)F)nc1)c1ccc(-c2ncccc2C(F)(F)F)cc1[N+](=O)[O-]` [Compound 20, 2-Nitro-N-(6-trifluoromethyl-pyridin-3-yl)-4-(3-trifluoromethyl-pyridin-2-yl)-benzamide], the pKi was above 6.00.

As to `O=C(Nc1cccc(C(F)(F)F)c1)c1ccc(-c2ccccc2F)nc1` [Compound 88, 6-(2-Fluoro-phenyl)-N-(3-trifluoromethyl-phenyl)-nicotinamide], the pKi was above 6.00.

In the case of `CC(C)c1ccc(NC(=O)c2ccc(-c3ncccc3Cl)cc2)cc1` [Compound 27, 4-(3-Chloro-pyridin-2-yl)-N-(4-isopropyl-phenyl)-benzamide], the pKi is above 6.00.

With `O=C(Nc1ccc2c(c1)CCC2)c1ccc(-c2ccccc2)nc1` [Compound 471, N-Indan-5-yl-6-phenyl-nicotinamide], the pKi is above 6.00.

Turning to `Cc1ccccc1-c1ccc(C(=O)Nc2ccc3c(c2)CCC3)cn1` [Compound 470, N-Indan-5-yl-6-o-tolyl-nicotinamide], the pKi is above 6.00.

For the compound `CCOc1cccc(-c2ccc(C(=O)Nc3ccc(C)c(F)c3)cn2)c1` [Compound 120, 6-(3-Ethoxyphenyl)-N-(3-fluoro-4-methyl-phenyl)-nicotinamide], the pKi is above 6.00.

Regarding `CC(C)(C)c1ccc(NC(=O)c2ccc(-c3ccccc3NS(C)(=O)=O)nc2)cc1` [Compound 445, N-(4-tert-Butyl-phenyl)-6-(2-methanesulfonylamino-phenyl)-nicotinamide], the pKi is above 6.00.

As for `CCc1ccc(NC(=O)c2ccc(-c3ccccc3F)nc2)cc1` [Compound 365, N-(4-Ethyl-phenyl)-6-(2-fluoro-phenyl)-nicotinamide], the pKi is above 6.00.

Regarding `CC(C)(C)c1ccc(NC(=O)c2ccc(-c3cnc4ccccc4c3)cc2)cc1` [Compound 434, N-(4-tert-Butyl-phenyl)-4-quinolin-3-yl-benzamide], the pKi was above 6.00.

The values are drawn from patent US20060100245A1, “Substituted biphenyl-4-carboxylic acid arylamide analogues” (Neurogen Corporation, priority 2002, published 2006).
